Experimental data from paper PMC7782499, “Progerinin, an optimized progerin-lamin A binding inhibitor, ameliorates premature senescence phenotypes of Hutchinson-Gilford progeria syndrome” (Communications Biology, 2021).

Test system: Beagle dogs
Experiment: Maximum tolerated dose study in Beagle dogs, escalated-dose oral administration
Format: in vivo
Set-up: HGB: unit not given here
Settings: for A/G / ALB / ALP / ALT / AST / BASO / BUN / CHO / CRE / EOS / GLU / HCT / HGB / K+ / LYM / MCH / MCHC / MCV / MONO / NEU / Na+ / PLT / PRO / RBC / Reti / T-BIL / TG / WBC: ~24 h post dose
Excerpt: The protocol and procedures involving the care and use of animals in this study was reviewed and approved by IACUC of QuBEST BIO prior to conduct (Approval no.: QBSIACUC-A18142). During the study, the care and use of animals will be conducted in accordance with all applicable guidelines of Animal Welfare Act. Non-naive one male and one female Beagle dogs (~16–24 months old, original supplier: ORIENTBIO Co., Ltd, Korea) were selected from the stock colony and assigned for the study. The route of administration was the oral (by gavage) route, which is the anticipated clinical route of exposure. Test article formulations were administered once via oral gavage. The day of 1st dosing was designated as Day 1. Each dose was administered via a syringe attached with 12-french feeding tube. A dose volume of 5 ml/kg was used and individual dose volumes were based on the most recent body weight. Each dose was followed by a distilled water of 5 ml. Each animal was observed twice daily (a.m. and p.m.) for mortality and moribundity; findings were recorded as they were observed. Cage side observations were made for each animal once daily; abnormal findings were recorded. […] Body weights were measured prior to each dosing. […] Prior to dosing and ~24 h post each dose, blood was collected as the same method and frequency with hematology analysis using no anticoagulant and then serum was separated by centrifugation and stored at freezer until analyze (AU 400, Olympus, Japan; […] 744 Na^+/K^+/[…] Analyzer, SIEMENS, Germany). In terminal procedures, all surviving animals were returned to the stock colony without necropsy. Toxicity studies were performed by QuBEST BIO Co., Ltd (Yongin, Korea).
The objective of this study was to determine the maximum tolerated dose (MTD) of SLC-D011 following dose escalation by oral gavage to Beagle dogs.
The study group was detailed in Text Table 1.
Text Table 1. Study Group
Dose Level Dose Conc. No. of Animals†
Group Treatment (mg/kg) (mg/mL)
†: Animals were re-used for each dose with at least 4-day wash-out period.
The following parameters were evaluated in this study: mortality, clinical signs, body weights and clinical pathology parameters (hematology and serum biochemistry).
Mortality and Clinical Observations
All animals survived until end of the study. Test article-related clinical observations were limited to oily soft stool in the 100 mg/kg/day group animals and vomitus (frothy) and soft sto ol in the 400 […]
Clinical Pathology Parameters (Hematology and Serum Chemistry) […]
the 100 and 400 mg/kg group animals on approximately 24 hours post each dose, compared to pre […]
Based on the results of this study, the maximum tolerated dose (MTD) of SLC-D011 was considered to […]
Test article formulations were administered once via oral gavage. The day of 1st dosing was designated […]
Each dose was administered via a syringe attached with 12-french feeding tube. A dose volume of 5 mL/kg was used and individual dose volumes were based on the most recent body weight. Each dose was followed by a distilled water of 5 mL. […]
Each animal was observed twice daily (a.m. and p.m.) for mortality and moribundity; findings were recorded as they were observed. Cage side observations were made for each animal once daily; abnormal findings were recorded. Detailed observations were made for each animal once prior to treatment; abnormal findings (ranked/graded, if appropriate) or an indication the animal appears […]
Body weights were measured prior to each dosing. […]
Prior to each dosing and approximately 24 hours post each dose, blood samples for hematology examination were collected from the via cephalic vein into tubes with K2EDTA anticoagulant and […]
Parameters Unit Measurement Method
ⓐ RBC (Red blood cell count) 106/μL Electric Impedance […]
ⓒ HGB (Hemoglobin conc.) g/dL Cyanmethemoglobin […]

For `CC1(C)Oc2cc3oc(=O)ccc3cc2C[C@@H]1OC/C=C/c1ccccc1` [SLC-D011], the Body weights (100 mg/kg/day group animals by Day 4) was “lower body weights were temporarily noted”, the “Hematology and serum chemistry parameters (in words)” value (100 and 400 mg/kg, ~24 hours post each dose vs pre dose) was “no toxicologically significant changes” and the A/G (female F1, 100 mg/kg) was 0.72. For the same compound, the ALB (female F1, 100 mg/kg) was 2.62 g/dL, the ALP (female F1, 100 mg/kg) was 106.7 U/L and the ALT (female F1, 100 mg/kg) was 34.3 U/L. For the same compound, the AST (female F1, 100 mg/kg) was 41.7 U/L, the BASO (female F1, 100 mg/kg) was 0.6% and the BUN (female F1, 100 mg/kg) was 17.7 mg/dL. It also gave a CHO (female F1, 100 mg/kg) of 189.4 mg/dL, a CRE (female F1, 100 mg/kg) of 0.82 mg/dL and an EOS (female F1, 100 mg/kg) of 1.2%. It also gave a GLU (female F1, 100 mg/kg) of 96.4 mg/dL, an HCT (female F1, 100 mg/kg) of 47.8% and an HGB (female F1, 100 mg/kg) of 15.6. For the same compound, the “K+” value (female F1, 100 mg/kg) was 4.5 mmol/L, the LYM (female F1, 100 mg/kg) was 39.9% and the MCH (female F1, 100 mg/kg) was 22.5 pg. For the same compound, the MCHC (female F1, 100 mg/kg) was 32.6 g/dL, the MCV (female F1, 100 mg/kg) was 68.9 fL and the MONO (female F1, 100 mg/kg) was 5.6%. The NEU (female F1, 100 mg/kg) was 52.3%, the “Na+” value (female F1, 100 mg/kg) was 141 mmol/L and the PLT (female F1, 100 mg/kg) was 357 K/uL. It also gave a PRO (female F1, 100 mg/kg) of 6.27 g/dL, an RBC (female F1, 100 mg/kg) of 6.93 M/uL and a Reti (female F1, 100 mg/kg) of 0.61%. The T-BIL (female F1, 100 mg/kg) was 0.18 mg/dL, the TG (female F1, 100 mg/kg) was 21.3 mg/dL and the WBC (female F1, 100 mg/kg) was 7.80 K/uL. For the same compound, the A/G (female F1, 400 mg/kg) was 0.78, the ALB (female F1, 400 mg/kg) was 2.53 g/dL and the ALP (female F1, 400 mg/kg) was 174.7 U/L. The ALT (female F1, 400 mg/kg) was 39.1 U/L, the AST (female F1, 400 mg/kg) was 34.5 U/L and the BASO (female F1, 400 mg/kg) was 0.8%. The BUN (female F1, 400 mg/kg) was 12.08 mg/dL, the CHO (female F1, 400 mg/kg) was 175.1 mg/dL and the CRE (female F1, 400 mg/kg) was 0.85 mg/dL. For the same compound, the EOS (female F1, 400 mg/kg) was 1.4%, the GLU (female F1, 400 mg/kg) was 104.39 mg/dL and the HCT (female F1, 400 mg/kg) was 50.8%. For the same compound, the HGB (female F1, 400 mg/kg) was 15.7, the “K+” value (female F1, 400 mg/kg) was 4.9 mmol/L and the LYM (female F1, 400 mg/kg) was 31.2%. It also gave an MCH (female F1, 400 mg/kg) of 22.2 pg, an MCHC (female F1, 400 mg/kg) of 30.9 g/dL and an MCV (female F1, 400 mg/kg) of 71.7 fL. The MONO (female F1, 400 mg/kg) was 6.5%, the NEU (female F1, 400 mg/kg) was 59.6% and the “Na+” value (female F1, 400 mg/kg) was 143 mmol/L. It also gave a PLT (female F1, 400 mg/kg) of 378 K/uL, a PRO (female F1, 400 mg/kg) of 5.76 g/dL and an RBC (female F1, 400 mg/kg) of 7.08 M/uL. The Reti (female F1, 400 mg/kg) was 0.95%, the T-BIL (female F1, 400 mg/kg) was 0.15 mg/dL and the TG (female F1, 400 mg/kg) was 29.3 mg/dL. The WBC (female F1, 400 mg/kg) was 10.99 K/uL, the Mortality (female dog, 100 mg/kg) was 0/1 and the “Clinical Observations Day 1” value (female dog, 100 mg/kg, about 7 hours post dose) was “Soft stool (Oily)”. For the same compound, the Mortality (female dog, 400 mg/kg) was 0/1, the “Clinical Observations Day 1” value (female dog, 400 mg/kg, about 6 hours post dose) was “Black soft stool” and the A/G (male M1, 100 mg/kg) was 0.58. The ALB (male M1, 100 mg/kg) was 2.41 g/dL, the ALP (male M1, 100 mg/kg) was 83.4 U/L and the ALT (male M1, 100 mg/kg) was 43.1 U/L. For the same compound, the AST (male M1, 100 mg/kg) was 28 U/L, the BASO (male M1, 100 mg/kg) was 0.2% and the BUN (male M1, 100 mg/kg) was 16.83 mg/dL. For the same compound, the CHO (male M1, 100 mg/kg) was 161 mg/dL, the CRE (male M1, 100 mg/kg) was 0.7 mg/dL and the EOS (male M1, 100 mg/kg) was 4.3%. The HCT (male M1, 100 mg/kg) was 46.8%, the HGB (male M1, 100 mg/kg) was 15.4 and the “K+” value (male M1, 100 mg/kg) was 4.8 mmol/L. The LYM (male M1, 100 mg/kg) was 32.4%, the MCH (male M1, 100 mg/kg) was 23.0 pg and the MCHC (male M1, 100 mg/kg) was 33.0 g/dL. It also gave an MCV (male M1, 100 mg/kg) of 69.9 fL, an MONO (male M1, 100 mg/kg) of 7.1% and an NEU (male M1, 100 mg/kg) of 55.7%. For the same compound, the “Na+” value (male M1, 100 mg/kg) was 144 mmol/L, the PLT (male M1, 100 mg/kg) was 354 K/uL and the RBC (male M1, 100 mg/kg) was 6.69 M/uL. It also gave a Reti (male M1, 100 mg/kg) of 0.15%, a T-BIL (male M1, 100 mg/kg) of 0.1 mg/dL and a TG (male M1, 100 mg/kg) of 28.9 mg/dL. For the same compound, the WBC (male M1, 100 mg/kg) was 8.83 K/uL, the A/G (male M1, 400 mg/kg) was 0.59 and the ALB (male M1, 400 mg/kg) was 2.37 g/dL. For the same compound, the ALP (male M1, 400 mg/kg) was 94.3 U/L, the ALT (male M1, 400 mg/kg) was 74.9 U/L and the AST (male M1, 400 mg/kg) was 27.2 U/L. For the same compound, the BASO (male M1, 400 mg/kg) was 0.6%, the BUN (male M1, 400 mg/kg) was 16.17 mg/dL and the CHO (male M1, 400 mg/kg) was 142 mg/dL. The CRE (male M1, 400 mg/kg) was 0.79 mg/dL, the EOS (male M1, 400 mg/kg) was 4.4% and the HCT (male M1, 400 mg/kg) was 50.5%. For the same compound, the HGB (male M1, 400 mg/kg) was 15.2, the “K+” value (male M1, 400 mg/kg) was 5.1 mmol/L and the LYM (male M1, 400 mg/kg) was 25.1%. For the same compound, the MCH (male M1, 400 mg/kg) was 22.1 pg, the MCHC (male M1, 400 mg/kg) was 30.1 g/dL and the MCV (male M1, 400 mg/kg) was 73.2 fL. For the same compound, the MONO (male M1, 400 mg/kg) was 7.9%, the NEU (male M1, 400 mg/kg) was 61.7% and the “Na+” value (male M1, 400 mg/kg) was 146 mmol/L. For the same compound, the PLT (male M1, 400 mg/kg) was 347 K/uL, the RBC (male M1, 400 mg/kg) was 6.90 M/uL and the Reti (male M1, 400 mg/kg) was 0.34%. For the same compound, the T-BIL (male M1, 400 mg/kg) was 0.12 mg/dL, the TG (male M1, 400 mg/kg) was 34.4 mg/dL and the WBC (male M1, 400 mg/kg) was 9.43 K/uL. For the same compound, the Mortality (male dog, 100 mg/kg) was 0/1, the “Clinical Observations Day 1” value (male dog, 100 mg/kg, about 7 hours post dose) was “Brown soft stool (Oily)” and the Mortality (male dog, 400 mg/kg) was 0/1. The “Clinical Observations Day 1” value (male dog, 400 mg/kg, about 1 hours post dose) was “Vomitius (Frothy)” and the Tolerability (single oral administration at 100 and 400 mg/kg) was “well tolerated”.
